Results taken from patent US8691865B2 (AbbVie Inc., priority 2008, dated 2014).
pIC50: −log10 of the molar value.

Target: human Cav2.2 (Homo sapiens, UniProt Q00975)
Assay: Assessment of calcium channel activity using FLIPR (Ca2+ influx in IMR32 cells)
Type: cell-based
Conditions: not given
Procedure, shortened: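 IC50 values derive from nonlinear sigmoidal fitting of percent inhibition, relative to inhibitor-free activity, of Ca2+ influx read by FLIPR. Cells were IMR32 human neuroblastoma, plated at 1−1.2×10^5 per well and grown 48 h at 37 °C.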

Sequence of human Cav2.2 (Q00975 whole entry): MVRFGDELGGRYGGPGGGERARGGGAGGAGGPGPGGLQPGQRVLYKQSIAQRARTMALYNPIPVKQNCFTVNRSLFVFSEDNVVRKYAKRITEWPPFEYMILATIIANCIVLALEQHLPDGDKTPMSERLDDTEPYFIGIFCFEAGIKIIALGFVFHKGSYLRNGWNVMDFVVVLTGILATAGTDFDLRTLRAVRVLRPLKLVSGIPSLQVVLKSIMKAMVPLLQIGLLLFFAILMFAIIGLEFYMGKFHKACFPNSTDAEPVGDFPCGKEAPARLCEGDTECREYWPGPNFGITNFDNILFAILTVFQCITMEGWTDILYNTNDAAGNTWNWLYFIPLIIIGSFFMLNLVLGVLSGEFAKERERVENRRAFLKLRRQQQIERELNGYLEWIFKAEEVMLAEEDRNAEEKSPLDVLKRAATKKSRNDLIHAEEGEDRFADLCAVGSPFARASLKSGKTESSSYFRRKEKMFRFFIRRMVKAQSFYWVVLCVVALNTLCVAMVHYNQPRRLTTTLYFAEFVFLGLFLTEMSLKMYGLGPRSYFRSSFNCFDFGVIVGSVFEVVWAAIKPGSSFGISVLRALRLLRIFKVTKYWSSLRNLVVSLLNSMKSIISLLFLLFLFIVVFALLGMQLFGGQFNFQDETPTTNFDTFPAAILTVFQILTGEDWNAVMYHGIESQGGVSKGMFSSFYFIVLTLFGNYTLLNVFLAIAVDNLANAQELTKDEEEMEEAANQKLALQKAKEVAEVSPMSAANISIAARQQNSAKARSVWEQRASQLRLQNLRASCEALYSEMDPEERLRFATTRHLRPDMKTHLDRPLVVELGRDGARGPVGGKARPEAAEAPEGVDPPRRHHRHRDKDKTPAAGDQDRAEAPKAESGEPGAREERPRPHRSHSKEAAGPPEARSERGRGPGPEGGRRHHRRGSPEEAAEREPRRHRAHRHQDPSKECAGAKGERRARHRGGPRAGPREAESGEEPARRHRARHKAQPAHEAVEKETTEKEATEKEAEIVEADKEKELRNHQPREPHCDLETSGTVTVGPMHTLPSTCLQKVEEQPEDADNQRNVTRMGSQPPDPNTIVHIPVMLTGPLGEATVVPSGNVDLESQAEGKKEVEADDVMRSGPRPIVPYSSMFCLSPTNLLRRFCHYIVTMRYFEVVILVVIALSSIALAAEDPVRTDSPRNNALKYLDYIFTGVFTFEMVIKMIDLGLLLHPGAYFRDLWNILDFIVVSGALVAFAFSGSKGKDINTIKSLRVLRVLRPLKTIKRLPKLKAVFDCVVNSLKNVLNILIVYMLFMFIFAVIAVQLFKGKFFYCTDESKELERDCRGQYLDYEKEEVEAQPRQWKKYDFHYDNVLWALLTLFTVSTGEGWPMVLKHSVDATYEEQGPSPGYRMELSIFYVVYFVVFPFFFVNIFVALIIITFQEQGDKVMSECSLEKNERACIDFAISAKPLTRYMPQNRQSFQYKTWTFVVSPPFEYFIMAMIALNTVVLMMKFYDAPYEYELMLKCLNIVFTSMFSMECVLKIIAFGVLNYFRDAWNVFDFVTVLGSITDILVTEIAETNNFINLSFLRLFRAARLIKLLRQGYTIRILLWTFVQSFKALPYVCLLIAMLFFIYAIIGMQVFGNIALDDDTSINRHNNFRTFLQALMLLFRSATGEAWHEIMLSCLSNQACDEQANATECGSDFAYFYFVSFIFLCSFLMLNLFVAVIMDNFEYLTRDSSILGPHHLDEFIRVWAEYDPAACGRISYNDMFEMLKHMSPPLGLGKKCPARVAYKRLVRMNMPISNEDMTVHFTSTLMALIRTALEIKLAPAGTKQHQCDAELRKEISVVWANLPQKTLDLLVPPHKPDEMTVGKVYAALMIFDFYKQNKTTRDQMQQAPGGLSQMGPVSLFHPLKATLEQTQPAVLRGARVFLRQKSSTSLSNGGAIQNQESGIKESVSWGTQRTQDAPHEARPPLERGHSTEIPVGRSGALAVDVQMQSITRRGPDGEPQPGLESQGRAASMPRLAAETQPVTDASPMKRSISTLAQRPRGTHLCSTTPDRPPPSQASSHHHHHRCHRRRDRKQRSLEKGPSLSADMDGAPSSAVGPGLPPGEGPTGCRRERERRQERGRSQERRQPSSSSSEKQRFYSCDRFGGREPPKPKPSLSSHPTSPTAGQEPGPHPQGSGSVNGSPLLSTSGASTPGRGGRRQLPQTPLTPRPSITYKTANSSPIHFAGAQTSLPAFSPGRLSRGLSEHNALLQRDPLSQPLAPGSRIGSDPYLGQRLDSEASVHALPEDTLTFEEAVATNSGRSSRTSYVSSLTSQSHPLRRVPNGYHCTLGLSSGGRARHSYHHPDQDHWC
Sequence of human Cav2.2 (P54289 25-956 partner limits assumed): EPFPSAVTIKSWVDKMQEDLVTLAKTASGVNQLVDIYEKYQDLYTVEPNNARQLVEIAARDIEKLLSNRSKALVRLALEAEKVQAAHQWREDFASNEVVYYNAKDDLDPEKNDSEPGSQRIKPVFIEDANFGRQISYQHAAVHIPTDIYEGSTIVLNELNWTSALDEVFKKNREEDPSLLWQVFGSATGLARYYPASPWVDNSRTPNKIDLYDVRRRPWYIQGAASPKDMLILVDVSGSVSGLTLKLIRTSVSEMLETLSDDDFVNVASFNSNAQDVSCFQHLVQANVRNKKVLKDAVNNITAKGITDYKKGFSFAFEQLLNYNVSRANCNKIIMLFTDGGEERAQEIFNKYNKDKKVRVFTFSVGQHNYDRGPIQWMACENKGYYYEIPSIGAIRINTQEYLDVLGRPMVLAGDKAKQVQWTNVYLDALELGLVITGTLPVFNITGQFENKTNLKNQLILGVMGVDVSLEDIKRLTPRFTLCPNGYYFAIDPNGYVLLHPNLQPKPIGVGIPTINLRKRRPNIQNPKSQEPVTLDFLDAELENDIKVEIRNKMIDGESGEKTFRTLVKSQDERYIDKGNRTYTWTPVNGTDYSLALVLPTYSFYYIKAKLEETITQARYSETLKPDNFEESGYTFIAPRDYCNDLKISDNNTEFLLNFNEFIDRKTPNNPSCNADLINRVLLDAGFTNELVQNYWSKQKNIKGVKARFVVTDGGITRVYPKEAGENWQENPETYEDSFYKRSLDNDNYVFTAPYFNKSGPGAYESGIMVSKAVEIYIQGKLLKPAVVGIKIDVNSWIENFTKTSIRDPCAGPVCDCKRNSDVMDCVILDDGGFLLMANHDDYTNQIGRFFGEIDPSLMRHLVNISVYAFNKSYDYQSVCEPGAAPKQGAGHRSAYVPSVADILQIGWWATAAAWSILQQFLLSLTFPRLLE
Sequence of human Cav2.2 (P54289 957-1103 partner limits assumed): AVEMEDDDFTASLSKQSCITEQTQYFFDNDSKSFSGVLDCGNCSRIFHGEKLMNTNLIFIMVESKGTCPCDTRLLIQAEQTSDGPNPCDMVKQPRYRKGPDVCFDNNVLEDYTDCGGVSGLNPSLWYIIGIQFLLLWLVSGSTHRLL
Sequence of human Cav2.2 (P54284 whole entry partner): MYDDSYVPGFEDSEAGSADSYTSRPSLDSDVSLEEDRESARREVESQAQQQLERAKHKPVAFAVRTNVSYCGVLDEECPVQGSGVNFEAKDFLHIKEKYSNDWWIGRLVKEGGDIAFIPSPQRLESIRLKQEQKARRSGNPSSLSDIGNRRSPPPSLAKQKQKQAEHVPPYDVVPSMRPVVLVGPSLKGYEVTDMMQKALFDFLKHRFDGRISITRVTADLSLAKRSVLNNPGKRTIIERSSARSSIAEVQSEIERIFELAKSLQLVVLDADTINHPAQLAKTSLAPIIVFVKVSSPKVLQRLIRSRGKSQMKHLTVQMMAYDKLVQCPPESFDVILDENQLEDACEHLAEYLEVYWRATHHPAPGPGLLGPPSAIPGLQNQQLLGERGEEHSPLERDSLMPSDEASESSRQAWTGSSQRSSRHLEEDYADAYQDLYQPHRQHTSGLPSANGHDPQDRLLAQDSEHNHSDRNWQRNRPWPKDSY

Compound | pIC50
N[C@@H](CC1CCCCC1)C(=O)N[C@H]1CC[C@@H]2CN(S(=O)(=O)c3ccc(C(F)(F)F)cc3)C[C@@H]21 [Example 426, 3-cyclohexyl-N^1-((3aR,4S,6aS)-2-{[4-(trifluoromethyl)phenyl]sulfonyl}octahydrocyclopenta[c]pyrrol-4-yl)-L-alaninamide] | 5.75
COc1cccc2[nH]cc(CN[C@H]3CC[C@@H]4CN(c5cccc(C(F)(F)F)n5)C[C@@H]43)c12 [Example 689, (3aR,4S,6aS)-N-[(4-methoxy-1H-indol-3-yl)methyl]-2-[6-(trifluoromethyl)pyridin-2-yl]octahydrocyclopenta[c]pyrrol-4-amine] | 6.09
CC(C)C[C@H](NCC(C)(C)C)C(=O)N[C@H]1CC[C@@H]2CN(S(=O)(=O)c3ccc(F)cc3)C[C@@H]21 [Example 261, N^1-{(3aR,4S,6aS)-2-[(4-fluorophenyl)sulfonyl]octahydrocyclopenta[c]pyrrol-4-yl}-N^2-neopentyl-L-leucinamide] | 5.90
CC(C)C(C(=O)N[C@H]1CC[C@@H]2CN(CCCCc3ccccc3)C[C@@H]21)c1ccccc1 (stereo partly drawn) [Example 113, 3-methyl-2-phenyl-N-[(3aR,4S,6aS)-2-(4-phenylbutyl)octahydrocyclopenta[c]pyrrol-4-yl]butanamide] | 6.23
Fc1ccc2c(CN[C@H]3CC[C@@H]4CN(c5cccc(C(F)(F)F)n5)C[C@@H]43)c[nH]c2c1 [Example 686, (3aR,4S,6aS)-N-[(6-fluoro-1H-indol-3-yl)methyl]-2-[6-(trifluoromethyl)pyridin-2-yl]octahydrocyclopenta[c]pyrrol-4-amine] | 6.06
O=S(=O)(N[C@H]1CC[C@@H]2CN(c3cccc(C(F)(F)F)n3)C[C@@H]21)c1ccc(Cl)cc1 [Example 700, 4-chloro-N-{(3aR,4S,6aS)-2-[6-(trifluoromethyl)pyridin-2-yl]octahydrocyclopenta[c]pyrrol-4-yl}benzenesulfonamide] | 5.30
CC(C)COC(=O)N[C@@H](CC(C)C)C(=O)N[C@@H]1CC[C@H]2CN(Cc3cccc(C(F)(F)F)c3)C[C@H]21 [Example 178, isobutyl (S)-4-methyl-1-oxo-1-((3aS,4R,6aR)-2-(3-(trifluoromethyl)benzyl)octahydrocyclopenta[c]pyrrol-4-ylamino)pentan-2-ylcarbamate] | 6.00
CCCC(C(=O)NC1CCC2CN(Cc3ccc(F)cc3)CC21)N(C)C(=O)OC(C)(C)C (single isomer, unassigned) [Example 315] | 5.27
O=S(=O)(c1ccc(C(F)(F)F)cc1)N1C[C@H]2CC[C@H](NCc3cc4cc(F)ccc4[nH]3)[C@H]2C1 [Example 654, (3aR,4S,6aS)-N-[(5-fluoro-1H-indol-2-yl)methyl]-2-{[4-(trifluoromethyl)phenyl]sulfonyl}octahydrocyclopenta[c]pyrrol-4-amine] | 6.09
CCC[C@H](NCC(C)(C)C)C(=O)N[C@H]1CC[C@@H]2CN(S(=O)(=O)c3ccc(C(F)(F)F)cc3)C[C@@H]21 [Example 257, N^2-neopentyl-N^1-((3aR,4S,6aS)-2-{[4-(trifluoromethyl)phenyl]sulfonyl}octahydrocyclopenta[c]pyrrol-4-yl)-L-norvalinamide] | 6.15
COc1ccc2[nH]cc(CN[C@H]3CC[C@@H]4CN(c5cccc(C(F)(F)F)n5)C[C@@H]43)c2c1 [Example 685, (3aR,4S,6aS)-N-[(5-methoxy-1H-indol-3-yl)methyl]-2-[6-(trifluoromethyl)pyridin-2-yl]octahydrocyclopenta[c]pyrrol-4-amine] | 5.96

Other lines, results leading:

pIC50 | Compound
< 4.52 | CCC[C@H](NC)C(=O)N[C@H]1CC[C@H]2CN(Cc3ccccc3)C[C@H]21 [Example 359, N^1-[(3aS,4S,6aR)-2-benzyloctahydrocyclopenta[c]pyrrol-4-yl]-N^2-methyl-L-norvalinamide]
6.15 | O=C(N[C@H]1CC[C@@H]2CN(c3cccc(C(F)(F)F)n3)C[C@@H]21)c1cc(Cl)c[nH]1 [Example 575, 4-chloro-N-{(3aR,4S,6aS)-2-[6-(trifluoromethyl)pyridin-2-yl]octahydrocyclopenta[c]pyrrol-4-yl}-1H-pyrrole-2-carboxamide]
5.42 | O=S(=O)(N[C@H]1CC[C@@H]2CN(c3cccc(C(F)(F)F)n3)C[C@@H]21)c1ccc(F)cc1 [Example 705, 4-fluoro-N-{(3aR,4S,6aS)-2-[6-(trifluoromethyl)pyridin-2-yl]octahydrocyclopenta[c]pyrrol-4-yl}benzenesulfonamide]
5.35 | O=C(N[C@H]1CC[C@@H]2CN(c3cccc(C(F)(F)F)n3)C[C@@H]21)[C@@H]1C[C@H](F)CN1 [Example 596, (4S)-4-fluoro-N-{(3aR,4S,6aS)-2-[6-(trifluoromethyl)pyridin-2-yl]octahydrocyclopenta[c]pyrrol-4-yl}-L-prolinamide]
5.07 | O=C(N[C@H]1CC[C@@H]2CN(c3ccc(Cl)cc3)C[C@@H]21)[C@@H]1C[C@@H](F)CN1 [Example 644, (4R)-N-[(3aR,4S,6aS)-2-(4-chlorophenyl)octahydrocyclopenta[c]pyrrol-4-yl]-4-fluoro-L-prolinamide]
< 4.65 | CS(=O)(=O)N1CCCC[C@H]1C(=O)N[C@@H]1CC[C@H]2CN(Cc3ccccc3)C[C@H]21 [Example 514, (2S)-N-[(3aS,4R,6aR)-2-benzyloctahydrocyclopenta[c]pyrrol-4-yl]-1-(methylsulfonyl)piperidine-2-carboxamide]
5.90 | O=C(N[C@H]1CC[C@H]2CN(Cc3cccc(C(F)(F)F)c3)C[C@H]21)C1CCCCC1 (relative stereo) [Example 127, N-{(3aS*,4S*,6aR*)-2-[3-(trifluoromethyl)benzyl]octahydrocyclopenta[c]pyrrol-4-yl}cyclohexanecarboxamide]
4.83 | O=C(N[C@H]1CC[C@@H]2CN(c3ccccc3F)C[C@@H]21)[C@@H]1C[C@@H](F)CN1 [Example 661, (4R)-4-fluoro-N-[(3aR,4S,6aS)-2-(2-fluorophenyl)octahydrocyclopenta[c]pyrrol-4-yl]-L-prolinamide]
< 4.52 | CC(C)CC(=O)N[C@H]1CC[C@@H]2CN(Cc3ccccc3)C[C@@H]21 [Example 230, N-[(3aR,4S,6aS)-2-benzyloctahydrocyclopenta[c]pyrrol-4-yl]-3-methylbutanamide]
6.09 | O=C(N[C@H]1CC[C@@H]2CN(c3cccc(C(F)(F)F)n3)C[C@@H]21)c1ccc(F)c(F)c1 [Example 565, 3,4-difluoro-N-{(3aR,4S,6aS)-2-[6-(trifluoromethyl)pyridin-2-yl]octahydrocyclopenta[c]pyrrol-4-yl}benzamide]
< 5.52 | CC[C@H](N)C(=O)N[C@H]1CC[C@@H]2CN(c3ccc(C(F)(F)F)cc3)C[C@@H]21 [Example 755, (2S)-2-amino-N-{(3aR,4S,6aS)-2-[4-(trifluoromethyl)phenyl]octahydrocyclopenta[c]pyrrol-4-yl}butanamide]

Same assay, conditions: read-out: IC50 (μM) or percent inhibition (* indicates 3 minute incubation, otherwise 60 minute); IC50; 60 minute pre-incubation with compound; IMR32 cells, 80 mM KCl depolarization

IC50 | Compound
23.6 µM | C[C@H](C(=O)N[C@@H]1CC[C@H]2CN(Cc3ccccc3)C[C@H]21)c1cccc(C(=O)c2ccccc2)c1 (relative stereo) [Example 13, (2S)-2-(3-benzoylphenyl)-N-[(3aS*,4R*,6aR*)-2-benzyloctahydrocyclopenta[c]pyrrol-4-yl]propanamide]
0.86 µM | O=C(CCCC(c1ccc(F)cc1)c1ccc(F)cc1)N[C@@H]1CC[C@H]2CN(Cc3cccc(C(F)(F)F)c3)C[C@H]21 (relative stereo) [Example 142, 5,5-bis(4-fluorophenyl)-N-{(3aS*,4R*,6aR*)-2-[3-(trifluoromethyl)benzyl]octahydrocyclopenta[c]pyrrol-4-yl}pentanamide]
1.14 µM | CC(C)C(C(=O)N[C@H]1CC[C@@H]2CN(CCCCCC(c3ccc(F)cc3)c3ccc(F)cc3)C[C@@H]21)c1ccccc1 (stereo partly drawn) [Example 107, N-{(3aR,4S,6aS)-2-[6,6-bis(4-fluorophenyl)hexyl]octahydrocyclopenta[c]pyrrol-4-yl}-3-methyl-2-phenylbutanamide]
1.01 µM | O=S(=O)(N[C@@H]1CC[C@H]2CN(Cc3cccc(C(F)(F)F)c3)C[C@H]21)c1cccc(C(F)(F)F)c1 [Example 189, 3-(trifluoromethyl)-N-{(3aS,4R,6aR)-2-[3-(trifluoromethyl)benzyl]octahydrocyclopenta[c]pyrrol-4-yl}benzenesulfonamide]
1.81 µM | CC(C)(C)C(C(=O)N[C@@H]1CC[C@H]2CN(Cc3ccccc3)C[C@H]21)c1ccccc1 (stereo partly drawn) [Example 30, N-[(3aS,4R,6aR)-2-benzyloctahydrocyclopenta[c]pyrrol-4-yl]-3,3-dimethyl-2-phenylbutanamide]
3.23 µM | O=C(N[C@H]1CC[C@H]2CN(Cc3ccncc3)C[C@H]21)C(C1CCCCC1)C1CCCCC1 [Example 72, 2,2-dicyclohexyl-N-[(3aS,4S,6aR)-2-(pyridin-4-ylmethyl)octahydrocyclopenta[c]pyrrol-4-yl]acetamide]
8.58 µM | CC(C)C[C@H](NS(C)(=O)=O)C(=O)N[C@@H]1CC[C@H]2CN(Cc3ccccc3)C[C@H]21 [Example 243, N^1-[(3aS,4R,6aR)-2-benzyloctahydrocyclopenta[c]pyrrol-4-yl]-N^2-(methylsulfonyl)-L-leucinamide]
1.81 µM | CC(C)C[C@H](NS(=O)(=O)CC(C)C)C(=O)N[C@@H]1CC[C@H]2CN(Cc3cccc(C(F)(F)F)c3)C[C@H]21 [Example 173, N^2-(isobutylsulfonyl)-N^1-{(3aS,4R,6aR)-2-[3-(trifluoromethyl)benzyl]octahydrocyclopenta[c]pyrrol-4-yl}-L-leucinamide]
0.71 µM | CC(C)C[C@@H](C(=O)N[C@@H]1CC[C@H]2CN(Cc3ccccc3)C[C@H]21)N(C)C(=O)OC(C)(C)C [Example 151, N^1-[(3aS,4R,6aR)-2-benzyloctahydrocyclopenta[c]pyrrol-4-yl]-N^2-(tert-butyloxycarbonyl)-N^2-methyl-L-leucinamide]
